Source: paper PMC9916658, “Design and Synthesis of New Quinazolin-4-one Derivatives with Negative mGlu7 Receptor Modulation Activity and Antipsychotic-Like Properties” (International Journal of Molecular Sciences, 2023)

Legend:
[1] = tested on: animal models of schizophrenia; settings: cited from earlier work
human mGlu4 receptor = target: T1, human mGlu4 receptor (Homo sapiens, UniProt Q14833); assay: mGlu4 receptor selectivity, cAMP accumulation screening at 10 µM; type: cell-based
T1 construct: expressed in transfected cells; host or cells: T-REx 293 (tetracycline-inducible)
T1 sequence (Q14833 33-912): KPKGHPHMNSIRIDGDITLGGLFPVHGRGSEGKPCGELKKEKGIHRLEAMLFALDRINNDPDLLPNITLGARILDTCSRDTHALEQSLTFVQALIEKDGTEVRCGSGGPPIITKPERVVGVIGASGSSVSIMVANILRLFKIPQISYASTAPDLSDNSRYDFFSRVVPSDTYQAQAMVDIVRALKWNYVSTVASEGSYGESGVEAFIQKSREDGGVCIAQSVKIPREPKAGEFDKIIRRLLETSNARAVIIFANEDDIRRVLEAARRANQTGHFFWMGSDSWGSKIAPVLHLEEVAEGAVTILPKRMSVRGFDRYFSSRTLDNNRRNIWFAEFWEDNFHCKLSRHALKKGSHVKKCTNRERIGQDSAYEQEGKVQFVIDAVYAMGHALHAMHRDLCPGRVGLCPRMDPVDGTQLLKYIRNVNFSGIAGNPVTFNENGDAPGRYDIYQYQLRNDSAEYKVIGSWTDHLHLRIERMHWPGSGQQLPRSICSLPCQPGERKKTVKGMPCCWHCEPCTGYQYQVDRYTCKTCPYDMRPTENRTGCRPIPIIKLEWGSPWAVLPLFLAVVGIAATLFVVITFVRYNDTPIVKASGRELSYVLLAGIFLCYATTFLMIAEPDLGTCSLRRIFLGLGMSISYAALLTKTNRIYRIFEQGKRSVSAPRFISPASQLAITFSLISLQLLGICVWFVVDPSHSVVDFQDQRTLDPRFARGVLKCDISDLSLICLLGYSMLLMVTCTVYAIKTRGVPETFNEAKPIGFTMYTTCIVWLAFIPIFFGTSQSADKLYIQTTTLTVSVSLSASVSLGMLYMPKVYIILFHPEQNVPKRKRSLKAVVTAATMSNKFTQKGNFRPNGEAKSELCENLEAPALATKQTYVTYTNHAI
Protocol: (§1) The cell lines with the tetracycline-inducible expression of human metabotropic receptors 4, 7, and 8 were described in detail by Chruścicka et al. (mGlu4 receptor NM_000841, mGlu7 receptor NM_000844.2, and mGlu8 receptor NM_000845). Cells were grown under standard cell culture conditions (37 °C, 5% CO2) in DMEM supplemented with 10% tetracycline-free FBS. The expression was induced through the addition of tetracycline to the culture medium at 0.75 μg/mL.
(§2) The determination of the intracellular cAMP through homogeneous time-resolved fluorescence (HTRF) was described in detail previously. […] The intracellular concentration of cyclic AMP was measured by means of a cAMP Gi HTRF kit from Cisbio, according to the manufacturer’s instructions. After 1 h of incubation at room temperature, the fluorescence at 620 nm and 665 nm was read (Tecan Infinite M1000). The results were calculated as the 665 nm/620 nm ratio multiplied by 10^4. […] Data were analyzed using GraphPad Prism version 5.04 for Windows (GraphPad Software, San Diego, USA).
(§3) Firstly, all compounds were screened at 10 μM using three cell lines expressing the mGlu4/7/8 receptor to evaluate selectivity. […] For compounds that passed the screening procedure, the dose–response curve in the presence of LSP4-2022 in 5 μM was evaluated compared to reference NAM ADX71743. […]

human mGlu8 receptor = target: T2, human mGlu8 receptor (Homo sapiens, UniProt O00222); assay: mGlu8 receptor selectivity, cAMP accumulation screening at 10 µM; type: cell-based; settings: group III mGlu receptors
T2 construct: expressed in transfected cells; host or cells: T-REx 293 (tetracycline-inducible)
T2 sequence (O00222 34-908): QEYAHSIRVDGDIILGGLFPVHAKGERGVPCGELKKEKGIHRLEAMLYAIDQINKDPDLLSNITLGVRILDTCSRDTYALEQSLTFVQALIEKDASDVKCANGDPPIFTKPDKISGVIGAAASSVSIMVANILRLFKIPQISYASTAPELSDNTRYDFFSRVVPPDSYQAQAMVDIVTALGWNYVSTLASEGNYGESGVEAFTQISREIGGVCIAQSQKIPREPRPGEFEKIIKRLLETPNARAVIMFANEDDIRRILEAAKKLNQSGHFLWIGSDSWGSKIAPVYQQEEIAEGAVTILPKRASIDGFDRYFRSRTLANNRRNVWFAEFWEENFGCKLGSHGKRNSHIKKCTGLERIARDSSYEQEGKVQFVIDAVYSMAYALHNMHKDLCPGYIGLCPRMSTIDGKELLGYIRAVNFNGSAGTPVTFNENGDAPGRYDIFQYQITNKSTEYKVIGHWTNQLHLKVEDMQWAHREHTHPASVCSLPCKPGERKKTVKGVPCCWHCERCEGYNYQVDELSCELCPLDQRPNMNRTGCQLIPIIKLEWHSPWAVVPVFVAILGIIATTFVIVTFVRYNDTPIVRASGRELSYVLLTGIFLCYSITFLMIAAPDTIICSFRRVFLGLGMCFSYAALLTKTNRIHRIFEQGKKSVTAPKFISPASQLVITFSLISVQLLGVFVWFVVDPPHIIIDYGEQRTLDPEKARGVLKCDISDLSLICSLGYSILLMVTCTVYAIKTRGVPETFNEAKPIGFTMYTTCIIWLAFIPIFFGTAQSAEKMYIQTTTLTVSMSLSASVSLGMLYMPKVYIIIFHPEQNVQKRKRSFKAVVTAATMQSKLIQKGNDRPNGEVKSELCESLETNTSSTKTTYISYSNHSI
Protocol: as §1, §2, §3

CYP3A4 = target: T3, CYP3A4 (Homo sapiens, UniProt P08684); assay: CYP inhibition assay, recombinant enzyme, fluorescence; type: in vitro ADME; settings: test concentrations 1.1, 3.3 and 10 μM; read-out: Cytochrome P450 3A4 IC50
T3 construct: purchased BD Biosciences
T3 sequence (P08684 whole entry): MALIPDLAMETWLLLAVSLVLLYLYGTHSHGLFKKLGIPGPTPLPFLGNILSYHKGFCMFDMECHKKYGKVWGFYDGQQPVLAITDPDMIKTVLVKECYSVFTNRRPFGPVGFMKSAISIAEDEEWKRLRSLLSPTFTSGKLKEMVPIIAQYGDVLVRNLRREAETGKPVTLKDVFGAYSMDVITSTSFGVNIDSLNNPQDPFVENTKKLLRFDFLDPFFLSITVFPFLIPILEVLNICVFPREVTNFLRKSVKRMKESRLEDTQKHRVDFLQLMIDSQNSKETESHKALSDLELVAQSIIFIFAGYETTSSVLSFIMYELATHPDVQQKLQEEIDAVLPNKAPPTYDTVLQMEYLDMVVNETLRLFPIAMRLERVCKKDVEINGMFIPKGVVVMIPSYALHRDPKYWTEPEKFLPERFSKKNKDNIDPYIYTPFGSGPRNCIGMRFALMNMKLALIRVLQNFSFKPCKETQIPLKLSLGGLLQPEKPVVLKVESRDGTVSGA
Protocol: CYP inhibition was performed with the recombinant enzymes CYP1A2, CYP2B6, CYP2C9, CYP2C19, CYP2D6, and CYP3A4 obtained from BD Biosciences. Compounds for CYP inhibition testing were prepared as 10 mM stock solutions in DMSO. Isoform-specific substrates were incubated at 37 °C individually with P450 enzymes (Table 5) and a range of test compound concentrations (1.1, 3.3 and 10 μM) in duplicate. Each isoform was tested separately with one reference compound, a known positive control inhibitor. […] At the end of the incubation, product formation was monitored with fluorescence detection.

[2] = tested on: MK-801-induced hyperactivity in mice; assay: MK-801-induced hyperactivity; type: in vivo; settings: mice, 2.5, 5, or 10 mg/kg
Protocol: The locomotor activity was recorded individually for each animal in locomotor activity cages with modifications. […] After 30 min, all of the mice were injected i.p. with MK-801 at 0.35 mg/kg and once again placed in the same cage. From then on, the ambulation scores were counted for 60 min. All of the groups were compared with the MK-801 control group. The experiment also included a control group treated with NaCl only.

naïve mice = assay: Spontaneous locomotor activity of naïve mice; type: in vivo; settings: compound alone
[3] = tested on: MK-801-induced disruptions of social interactions in mice; assay: Social interaction test (MK-801-induced deficits); type: in vivo; settings: all tested doses
Protocol: The method was adapted from de Moura Linck et al., 2008 [57], and Woźniak et al., 2016 [58]. After the 2-day habituation trial (10 min/day), a pair of mice was placed in the open field for 5 min. The social interactions between the two mice were determined based on the total time spent participating in social behavior, such as genital investigation, sniffing, chasing, and fighting each other. The total number of social episodes was also measured. The test was video-recorded and viewed by a trained observer.

selectivity over mGlu4 (human mGlu4 receptor; group III mGlu receptors)	selectivity over mGlu8 (human mGlu8 receptor)	IC50 (CYP3A4) [µM]	spontaneous locomotor activity (naïve mice)	mGlu4 NAM activity (human mGlu4 receptor; at 10 µM) [%]	SMILES	DOI-induced head twitches [1]	MK-801-induced disruptions in social interaction [1]	cognitive impairment in novel object recognition [1]	prepulse inhibition (PPI) [1]	activity in animal models of schizophrenia ([1]; mGlu7 NAMs)	MK-801-induced increase in locomotor activity [2]	MK-801-induced disruption in the interaction time [3]	MK-801-induced disruption in the number of episodes [3]
					CCc1nc2c(o1)CC(c1ccc(C)cc1C)CC2=O (centres unmarked) [ADX71743, reference compound]	active	active	active	active	antipsychotic activity			
selective	selective	3.3 to 10	no effect		COc1cccc(-c2ccc3nc(-c4ccccc4Cl)n(C)c(=O)c3c2)c1OC [ALX-171, 2-(2-chlorophenyl)-6-(2,3-dimethoxyphenyl)-3-methylquinazolin-4(3H)-one]						not able to reverse	reversed	reversed
		> 10		19.6	Cn1c(-c2ccccc2Cl)nc2ccc(-c3ccccc3)cc2c1=O [ALX-065, 2-(2-chlorophenyl)-3-methyl-6-phenylquinazolin-4(3H)-one]								
